These results are taken from patent US8063064B2, “Non-nucleoside reverse transcriptase inhibitors” (Roche Palo Alto LLC, priority 2006, dated 2011).

Counter-ions that a name gives are not always drawn.

System in one data set: not given
Assay: not given
Conditions: not given
What is called melting point is the temperature of the solid-liquid transition. `N#Cc1cc(Cl)cc(Oc2c(Br)ccc(Cc3n[nH]c4cnccc34)c2F)c1`: the melting point fell in the range of 182 to 186.9 °C.
Still for that read-out and setting: with `Cn1nc(Cc2ccc(Br)c(Oc3cc(Cl)cc(C#N)c3)c2F)c2cccnc21` the figure was 138.6 to 142.6 °C; with `N#Cc1cc(Cl)cc(Oc2c(Br)ccc(Cc3n[nH]c4ncncc34)c2F)c1`, 215 to 218 °C; with `N#Cc1cc(Cl)cc(Oc2c(Br)ccc(Cc3n[nH]c4c([N+](=O)[O-])cccc34)c2F)c1`, 214.2 to 216 °C.
Consider `N#Cc1cc(C#N)cc(Oc2c(C3CC3)ccc(Cc3n[nH]c4ncccc34)c2F)c1`, for which the melting point fell in the range of 221 to 223.6 °C.
Still for that read-out and setting: with `COc1ccc2c(Cc3ccc(Br)c(Oc4cc(Cl)cc(C#N)c4)c3F)n[nH]c2n1` the figure was 223.8 to 225 °C.
`N#Cc1cc(Cl)cc(Oc2c(Br)ccc(Cc3n[nH]c4ncc(F)cc34)c2F)c1` yielded a melting point of 206.5 to 209 °C.
On the same count and under the same terms, next, `Cc1ccc(Cc2n[nH]c3ncccc23)c(F)c1Oc1cc(Cl)cc(C#N)c1`: 215 to 218.8 °C.
On to `CCc1ccc(Cc2n[nH]c3ncccc23)c(F)c1Oc1cc(Cl)cc(C#N)c1`, for which the melting point fell in the range of 205 to 206.9 °C.
Same read-out and setting: with `COc1ccc(Cc2n[nH]c3ncccc23)c(F)c1Oc1cc(C#N)cc(C(F)F)c1` the figure was 197.9 to 201.9 °C; with `N#Cc1cc(Oc2c(Br)ccc(Cc3n[nH]c4ncccc34)c2F)cc(C(F)F)c1`, 192 to 194.4 °C; with `N#Cc1cc(Cl)cc(Oc2c(Br)ccc(Cc3n[nH]c4c(C#N)cccc34)c2F)c1`, 250 to 251.1 °C.
The same measure, in the same setting: with `N#Cc1cc(Oc2c(Br)ccc(Cc3n[nH]c4cnccc34)c2F)cc(C(F)F)c1` the figure was 166 to 166.9 °C; with `N#Cc1cc(Cl)cc(Oc2c(C3CC3)ccc(Cc3n[nH]c4ncccc34)c2F)c1`, 215 to 216.8 °C; with `N#Cc1cc(Cl)cc(Oc2c(Br)ccc(Cc3n[nH]c4c(N)cccc34)c2F)c1`, 179.9 to 181.3 °C.
For the molecule `N#Cc1cc(Cl)cc(Oc2c(Br)ccc(Cc3n[nH]c4ccncc34)c2F)c1`, the melting point fell in the range of 216 to 218.5 °C.
On the same count and under the same terms, next, `CS(=O)(=O)Nc1cccc2c(Cc3ccc(Br)c(Oc4cc(Cl)cc(C#N)c4)c3F)n[nH]c12`: 234 to 236 °C.
Same read-out and setting: with `N#Cc1cc(Cl)cc(Oc2c(Cl)ccc(Cc3cc(-c4ccccc4)[nH]n3)c2F)c1` the figure was 148 to 150.1 °C; with `Cc1ccc(Cc2n[nH]c3ncccc23)c(F)c1Oc1cc(C#N)cc(C(F)F)c1`, 212.5 to 214.4 °C.
Consider `N#Cc1cc(Cl)cc(Oc2c(Cl)ccc(Cc3n[nH]c4ncccc34)c2F)c1`, for which the melting point was in the range of 210 to 215.5 °C.
The molecule `N#Cc1cc(Cl)cc(Oc2c(Br)ccc(Cc3n[nH]c4nnccc34)c2F)c1` displayed a melting point of 237.6 to 240.8 °C.
Consider `CN1CCc2c(Cc3ccc(Br)c(Oc4cc(Cl)cc(C#N)c4)c3F)n[nH]c2C1=O`, for which the melting point lay within 235.5 to 237.1 °C.
Regarding `N#Cc1cc(Cl)cc(Oc2c(Br)ccc(Cc3n[nH]c4nccnc34)c2F)c1`, the melting point was 204 to 205 °C.
As for `N#Cc1cc(C#N)cc(Oc2c(Cl)ccc(Cc3n[nH]c4nnccc34)c2F)c1`, the melting point was 222.8 to 224.7 °C.
For the molecule `N#Cc1cc(Cl)cc(Oc2c(C(F)F)ccc(Cc3n[nH]c4nnccc34)c2F)c1`, the melting point is 177.5 to 178.2 °C.
For the molecule `Cc1cc(C#N)cc(Oc2c(Cl)ccc(Cc3n[nH]c4nnccc34)c2F)c1`, the melting point is 200 to 202.9 °C.
In turn, `CS(=O)(=O)c1ccc(Cc2n[nH]c3nnccc23)c(F)c1Oc1cc(Cl)cc(C#N)c1` showed a melting point of 239.5 to 240.7 °C.
Regarding `N#Cc1cc(Cl)cc(Oc2c(Br)ccc(Cc3n[nH]c4nc(Cl)ccc34)c2F)c1`, the melting point lay within 212.3 to 214 °C.
Take `N#Cc1cc(Cl)cc(Oc2c(Cl)ccc(Cc3n[nH]c4ccccc34)c2F)c1` [Compound I-3, 3-Chloro-5-[6-chloro-2-fluoro-3-(1H-indazol-3-ylmethyl)-phenoxy]-benzonitrile]: the melting point lay within 163.3 to 163.7 °C.
Same read-out and setting: next, `N#Cc1cc(Oc2c(Br)ccc(Cc3cc(-c4ccccc4)[nH]n3)c2F)cc(C(F)F)c1` [Compound I-5, 3-[6-Bromo-2-fluoro-3-(5-phenyl-1H-pyrazol-3-ylmethyl)-phenoxy]-5-difluoromethyl-benzonitrile]: 78.3 to 90.1 °C.
`N#Cc1cc(Cl)cc(Oc2c(Br)ccc(Cc3n[nH]c4ncccc34)c2F)c1` [Compound I-7, 3-[6-Bromo-2-fluoro-3-(1H-pyrazolo[3,4-b]pyridin-3-ylmethyl)-phenoxy]-5-chloro-benzonitrile] showed a melting point of 242 to 243 °C.
With `N#Cc1cc(Cl)cc(Oc2c(Br)ccc(Cc3n[nH]c4nc(Cl)ncc34)c2F)c1` [Compound I-13, 3-[6-Bromo-3-(6-chloro-1H-pyrazolo[3,4-d]pyrimidin-3-ylmethyl)-2-fluoro-phenoxy]-5-chloro-benzonitrile], the melting point is 216 to 217.9 °C.
For `N#Cc1cc(C#N)cc(Oc2c(Br)ccc(Cc3n[nH]c4ncccc34)c2F)c1` [Compound I-16, 5-[6-Bromo-2-fluoro-3-(1H-pyrazolo[3,4-b]pyridin-3-ylmethyl)-phenoxy]-isophthalonitrile], the melting point lay within 230 to 232.9 °C.
In turn, `N#Cc1cc(Oc2c(Cl)ccc(Cc3n[nH]c4ncccc34)c2F)cc(C(F)F)c1` [Compound I-28, 3-[6-Chloro-2-fluoro-3-(1H-pyrazolo[3,4-b]pyridin-3-ylmethyl)-phenoxy]-5-difluoromethyl-benzonitrile] came in with a melting point of 198 to 199 °C.

The next data set deals with T1, HIV-1 RT (Human immunodeficiency virus type 1 group M subtype B, UniProt P03366). The experiment in a line: Homopolymer HIV Reverse Transcriptase Assay: Inhibitor IC50 Determination. Type of data set: biochemical. The settings on record: purified recombinant enzyme, poly(rA)/oligo(dT)16 template-primer, 5 nM HIV-1 RT, 37° C. 30 min; TABLE 3. On the procedure: HIV-1 RT assay was carried out in 96-well Millipore filtermat NOB50 plates using purified recombinant enzyme and a poly(rA)/oligo(dT)16 template-primer in a total volume of 50 μL. The assay constituents were 50 mM Tris/HCl, 50 mM NaCl, 1 mM EDTA, 6 mM MgCl2, 5 μM dTTP, 0.1 μCi [^3H] dTTP, 5 μg/ml poly (rA) pre annealed to 2.5 μg/ml oligo (dT)16 and a range of inhibitor concentrations in a final concentration of 10% DMSO. Reactions were initiated by adding 5 nM HIV-1 RT and after incubation at 37° C. for 30 min, they were stopped by the addition of 50 μl ice cold 20% TCA and allowed to precipitate at 4° C. for 30 min. The precipitates were collected by applying vacuum to the plate and sequentially washing with 2×200 μl of 10% TCA and 2×200 μl 70% ethanol. Finally the plates were dried and radioactivity counted in a Wallac Microbeta 1450 after the addition of 15 μL scintillation fluid per well. IC50's (TABLE 3) were calculated by plotting % inhibition versus log10 inhibitor concentrations.
Broadly, the IC50 is the point on the concentration scale where inhibition reaches its midpoint. Turning to `N#Cc1cc(Cl)cc(Oc2c(Cl)ccc(Cc3n[nH]c4ccccc34)c2F)c1` [Compound I-3, 3-Chloro-5-[6-chloro-2-fluoro-3-(1H-indazol-3-ylmethyl)-phenoxy]-benzonitrile], the half-inhibitory concentration (IC50) amounted to 52 nM.
Turning to `N#Cc1cc(Oc2c(Br)ccc(Cc3cc(-c4ccccc4)[nH]n3)c2F)cc(C(F)F)c1` [Compound I-5, 3-[6-Bromo-2-fluoro-3-(5-phenyl-1H-pyrazol-3-ylmethyl)-phenoxy]-5-difluoromethyl-benzonitrile], the IC50 stood at 55 nM.

The target of the next data set is T1, HIV-1 RT. The experiment in a line: Heteropolymer HIV Reverse Transcriptase Assay: Inhibitor IC50 Determination. It is filed as biochemical. The settings on record: purified recombinant enzyme, poly(rA)/oligo(dT)16 template-primer, 4 nM HIV-1 RT, 37° C. 30 min; TABLE 2. On the procedure:
HIV-1 RT assay was carried out in 96-well Millipore MultiScreen MADVNOB50 plates using purified recombinant enzyme and a poly(rA)/oligo(dT)16 template-primer in a total volume of 50 μL. The assay constituents were 50 mM Tris/HCl, 50 mM NaCl, 1 mM EDTA, 6 mM MgCl2, 5 μM dTTP, 0.15 μCi [^3H] dTTP, 5 μg/ml poly (rA) pre annealed to 2.5 μg/ml oligo (dT)16 and a range of inhibitor concentrations in a final concentration of 10% DMSO. Reactions were initiated by adding 4 nM HIV-1 RT and after incubation at 37° C. for 30 min, they were stopped by the addition of 50 μl ice cold 20% TCA and allowed to precipitate at 4° C. for 30 min. The precipitates were collected by applying vacuum to the plate and sequentially washing with 3×200 μl of 10% TCA and 2×200 μl 70% ethanol. Finally, the plates were dried and radioactivity counted in a Packard TopCounter after the addition of 25 μl scintillation fluid per well. IC50's were calculated by plotting % inhibition versus log10 inhibitor concentrations.
For the molecule `N#Cc1cc(Oc2c(Br)ccc(Cc3n[nH]c4ccccc34)c2F)cc(C(F)F)c1` [Compound I-6, 3-[6-Bromo-2-fluoro-3-(1H-indazol-3-ylmethyl)-phenoxy]-5-difluoromethyl-benzonitrile], the IC50 was found to be 11.8 nM.
On to `N#Cc1cc(Cl)cc(Oc2c(Br)ccc(Cc3n[nH]c4ncccc34)c2F)c1` [Compound I-7, 3-[6-Bromo-2-fluoro-3-(1H-pyrazolo[3,4-b]pyridin-3-ylmethyl)-phenoxy]-5-chloro-benzonitrile], for which the IC50 was 7.6 nM.
As for `N#Cc1cc(Cl)cc(Oc2c(Cl)ccc(Cc3n[nH]c4nnccc34)c2F)c1` [Compound I-11, 3-Chloro-5-[6-chloro-2-fluoro-3-(1H-pyrazolo[3,4-c]pyridazin-3-ylmethyl)-phenoxy]-benzonitrile], the IC50 was determined as 1 nM.
Same read-out and setting: with `N#Cc1cc(Cl)cc(Oc2c(Br)ccc(Cc3n[nH]c4nc(Cl)ncc34)c2F)c1` [Compound I-13, 3-[6-Bromo-3-(6-chloro-1H-pyrazolo[3,4-d]pyrimidin-3-ylmethyl)-2-fluoro-phenoxy]-5-chloro-benzonitrile] the figure was 8.6 nM; with `N#Cc1cc(C#N)cc(Oc2c(Br)ccc(Cc3n[nH]c4ncccc34)c2F)c1` [Compound I-16, 5-[6-Bromo-2-fluoro-3-(1H-pyrazolo[3,4-b]pyridin-3-ylmethyl)-phenoxy]-isophthalonitrile], 3.3 nM.
On to `N#Cc1cc(Oc2c(Cl)ccc(Cc3n[nH]c4ncccc34)c2F)cc(C(F)F)c1` [Compound I-28, 3-[6-Chloro-2-fluoro-3-(1H-pyrazolo[3,4-b]pyridin-3-ylmethyl)-phenoxy]-5-difluoromethyl-benzonitrile], for which the IC50 came to 3.7 nM.
`Cn1c(=O)ccc2c(Cc3ccc(Br)c(Oc4cc(Cl)cc(C#N)c4)c3F)n[nH]c21` [Compound I-48, 3-[6-Bromo-2-fluoro-3-(7-methyl-6-oxo-6,7-dihydro-1H-pyrazolo[3,4-b]pyridin-3-ylmethyl)-phenoxy]-5-chloro-benzonitrile, TFA salt]: the IC50 turned out to be 0.9 nM.
